Patent US12655116B2, “Substituted isophthalic acid diamides” (Bayer Aktiengesellschaft, priority 2020, dated 2026)

Key:
AMARE [1] = experiment: Pre-emergence herbicidal action against AMARE; type: in vivo, Amaranthus retroflexus
Procedure, shortened: (§1)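 Sandy loam pots, seeds covered with soil, then surface-treated with WP or EC formulations at 600–800 l/ha water plus 0.2% wetting agent. Greenhouse, 3 weeks. Percent damage vs untreated controls.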

DIGSA [2] = experiment: Pre-emergence herbicidal action against DIGSA; type: in vivo, Digitaria sanguinalis
Procedure, shortened: as §1

ECHCG [3] = experiment: Pre-emergence herbicidal action against ECHCG; type: in vivo, Echinochloa crus-galli; details: 80 g/ha
Procedure, shortened: as §1

MATIN [4] = experiment: Post-emergence herbicidal action against MATIN; type: in vivo, Matricaria inodora
Procedure, shortened: (§2)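 Visual % rating (0% = as untreated, 100% = dead) ~3 wk after spraying one-leaf-stage plants grown in sandy loam; WP/EC in water at 600–800 l/ha, 0.2% wetting agent.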

ABUTH [5] = experiment: Post-emergence herbicidal action against ABUTH; type: in vivo, Abutilon theophrasti; details: visual assessment about 3 weeks after treatment vs untreated controls
Procedure, shortened: as §2

ECHCG [6] = experiment: Post-emergence herbicidal action against ECHCG; type: in vivo, Echinochloa crus-galli
Procedure, shortened: as §2

VERPE [7] = experiment: Pre-emergence herbicidal action against VERPE; type: in vivo, Veronica persica
Procedure, shortened: as §1

SETVI [8] = experiment: Post-emergence herbicidal action against SETVI; type: in vivo, Setaria viridis
Procedure, shortened: as §2

VIOTR [9] = experiment: Pre-emergence herbicidal action against VIOTR; type: in vivo, Viola tricolor
Procedure, shortened: as §1

PHBPU [10] = experiment: Post-emergence herbicidal action against PHBPU; type: in vivo, Pharbitis purpurea; details: dosage 20 g/ha
Procedure, shortened: as §2

SETVI [11] = experiment: Pre-emergence herbicidal action against SETVI; type: in vivo, Setaria viridis; details: dosage 80 g/ha
Procedure, shortened: as §1

PHBPU [12] = experiment: Pre-emergence herbicidal action against PHBPU; type: in vivo, Pharbitis purpurea; details: dosage 80 g/ha
Procedure, shortened: as §1

VIOTR [13] = experiment: Post-emergence herbicidal action against VIOTR; type: in vivo, Viola tricolor
Procedure, shortened: as §2

MATIN [14] = experiment: Pre-emergence herbicidal action against MATIN; type: in vivo, Matricaria inodora
Procedure, shortened: as §1

AVEFA = experiment: Pre-emergence herbicidal action against AVEFA; type: in vivo, Avena fatua; details: 80 g/ha, pre-emergence
Procedure, shortened: as §1

ALOMY = experiment: Pre-emergence herbicidal action against ALOMY; type: in vivo, Alopecurus myosuroides; details: 80 g/ha, pre-emergence, scored visually after 3 weeks vs untreated controls (100% = plants have died, 0% = like control plants)
Procedure, shortened: as §1

VERPE [15] = experiment: Post-emergence herbicidal action against VERPE; type: in vivo, Veronica persica
Procedure, shortened: as §2

ABUTH [16] = experiment: Pre-emergence herbicidal action against ABUTH; type: in vivo, Abutilon theophrasti; details: for Pre-emergence action against ABUTH (herbicidal activity): 80 g/ha, scored visually after 3 weeks vs untreated controls (100% = plants have died, 0% = like control plants); for Pre-emergence action against ABUTH (herbicidal activity in percent): dosage 20 g/ha, scored visually after 3 weeks vs untreated controls, 100% = plants have died, 0% = like control plants
Procedure, shortened: as §1

POLCO = experiment: Pre-emergence herbicidal action against POLCO; type: in vivo, Polygonum convolvulus; details: dosage 80 g/ha
Procedure, shortened: as §1

DIGSA [17] = experiment: Post-emergence herbicidal action against DIGSA; type: in vivo, Digitaria sanguinalis; details: for Post-emergence action against DIGSA in %: 5 g/ha; for Post-emergence action against DIGSA: 20 g/ha
Procedure, shortened: as §2

AMARE [18] = experiment: Post-emergence herbicidal action against AMARE; type: in vivo, Amaranthus retroflexus; details: 20 g/ha, visual assessment about 3 weeks after treatment, 100% = plants have died, 0% = like control plants
Procedure, shortened: as §2

[19] = 20 g/ha, scored visually after 3 weeks vs untreated controls, 100% = plants have died, 0% = like control plants
[20] = 80 g/ha, scored visually after 3 weeks vs untreated controls (100% = plants have died, 0% = like control plants)

| SMILES | Pre-emergence action against AMARE in % (AMARE [1]; [19]) | Pre-emergence action against AMARE in % (AMARE [1]; [20]) | Pre-emergence action against DIGSA in % (DIGSA [2]; dosage 20 g/ha) | Pre-emergence action against DIGSA in % (DIGSA [2]; dosage 80 g/ha) | Pre-emergence action against ECHCG in % (ECHCG [3]) | Post-emergence action against MATIN in % (MATIN [4]; dosage 5 g/ha) | Post-emergence action against MATIN in % (MATIN [4]; dosage 20 g/ha) | Post-emergence action against ABUTH in % (ABUTH [5]; dosage 20 g/ha) | Post-emergence action against ECHCG in % (ECHCG [6]; dosage 20 g/ha) | Pre-emergence action against VERPE in % (VERPE [7]; dosage 80 g/ha) | Post-emergence action against SETVI in % (SETVI [8]; dosage 20 g/ha) | Pre-emergence action against VIOTR in % (VIOTR [9]; dosage 20 g/ha) | Pre-emergence action against VIOTR in % (VIOTR [9]; dosage 80 g/ha) | Post-emergence action against PHBPU in % (PHBPU [10]) | Pre-emergence action against SETVI in % (SETVI [11]) | Pre-emergence action against PHBPU in % (PHBPU [12]) | Post-emergence action against VIOTR in % (VIOTR [13]; 20 g/ha) | Pre-emergence action against MATIN in % (MATIN [14]; dosage 20 g/ha) | Pre-emergence action against MATIN in % (MATIN [14]; dosage 80 g/ha) | Post-emergence action against VERPE in % (VERPE [15]; 20 g/ha) | other results |
| --- | --- | --- | --- | --- | --- | --- | --- | --- | --- | --- | --- | --- | --- | --- | --- | --- | --- | --- | --- | --- | --- |
| CCNC(=O)c1c(C(F)F)ccc(C(=O)Nc2nnnn2CC)c1OC [Example 2-73] | 100% | 100% | 90% | 100% | 100% | 80% | 80% | 80% | 80% | 90% | 100% | 90% | 100% | 80% | 100% | 80% | 100% | 100% | 100% | 90% | Post-emergence action against ABUTH in % (ABUTH [5]; dosage 5 g/ha): 80%; Post-emergence action against ECHCG in % (ECHCG [6]; dosage 5 g/ha): 80%; Pre-emergence action against VERPE in % (VERPE [7]; dosage 20 g/ha): 90%; Pre-emergence action against AVEFA in % (AVEFA): 80%; Pre-emergence action against ALOMY (herbicidal activity) (ALOMY): 100%; Post-emergence action against VERPE in % (VERPE [15]; 5 g/ha): 80%; Pre-emergence action against ABUTH (herbicidal activity) (ABUTH [16]): 100%; Pre-emergence action against ABUTH (herbicidal activity in percent) (ABUTH [16]): 100%; Pre-emergence action against POLCO in % (POLCO): 80% |
| CCc1c(C(=O)Nc2nnnn2CC)ccc(C(F)F)c1C(=O)NC [Example 2-277] | 100% | 100% | 90% | 100% | 90% | 90% | 90% | 90% | 100% | 100% | 90% | 100% | 100% | 90% | 80% | 80% | 90% | 90% | 100% | 90% | Post-emergence action against ABUTH in % (ABUTH [5]; dosage 5 g/ha): 80%; Post-emergence action against SETVI in % (SETVI [8]; dosage 5 g/ha): 90%; Post-emergence action against DIGSA in % (DIGSA [17]): 90%; Post-emergence action against DIGSA (DIGSA [17]): 90%; Post-emergence action against VIOTR in % (VIOTR [13]; 5 g/ha): 90%; Post-emergence action at 20 g/ha against AMARE in % (AMARE [18]): 90%; Post-emergence action against VERPE in % (VERPE [15]; 5 g/ha): 80%; Pre-emergence action against ABUTH (herbicidal activity) (ABUTH [16]): 100%; Pre-emergence action against ABUTH (herbicidal activity in percent) (ABUTH [16]): 90%; Pre-emergence action against POLCO in % (POLCO): 90% |
| CCn1nnnc1NC(=O)c1ccc(C(F)F)c(C(=O)NC2CC2)c1C1CC1 [Example 2-306] | 90% | 100% | 100% | 100% | 100% | 80% | 90% | 80% | 90% | 100% | 80% | 100% | 100% | 80% | 100% | 100% | 90% | 90% | 100% | 90% | Post-emergence action against ECHCG in % (ECHCG [6]; dosage 5 g/ha): 90%; Post-emergence action against SETVI in % (SETVI [8]; dosage 5 g/ha): 80%; Post-emergence action against DIGSA in % (DIGSA [17]): 80%; Post-emergence action against DIGSA (DIGSA [17]): 90%; Post-emergence action against VIOTR in % (VIOTR [13]; 5 g/ha): 90%; Post-emergence action at 20 g/ha against AMARE in % (AMARE [18]): 90%; Pre-emergence action against ABUTH (herbicidal activity) (ABUTH [16]): 100%; Pre-emergence action against ABUTH (herbicidal activity in percent) (ABUTH [16]): 100%; Pre-emergence action against POLCO in % (POLCO): 80% |
